# Source: paper PMC5218480 (PLoS ONE, 2017)
# System: MV-4-11 cells
# Assay: Gene expression microarray analysis (Affymetrix PrimeView) and GSEA
# Type: cell-based, human
# Design: RFU PODN (11730768_x_at) / Fold change /veh PODN (11730768_x_at) / RFU LINC00158 (11744669_a_at) / Fold change /veh LINC00158 (11744669_a_at) / RFU DUSP10 (11751237_a_at) / Fold change /veh DUSP10 (11751237_a_at) / RFU ID3 (11757404_x_at) / Fold change /veh ID3 (11757404_x_at) / RFU PLEKHG5 (11737974_s_at) / Fold change /veh PLEKHG5 (11737974_s_at) / RFU LRRC4B (11730491_at) / Fold change /veh LRRC4B (11730491_at) / RFU GIMAP4 (11747438_a_at) / Fold change /veh GIMAP4 (11747438_a_at) / RFU KRT8 (11758183_x_at) / Fold change /veh KRT8 (11758183_x_at) / RFU CNN1 (11734310_a_at) / Fold change /veh CNN1 (11734310_a_at) / RFU VPS37D (11726825_at) / Fold change /veh VPS37D (11726825_at) / RFU C10orf10 (11716522_x_at) / Fold change /veh C10orf10 (11716522_x_at) / RFU KIR2DL2 /// KIR2DL4 /// KIR2DL5A /// KIR2DL5B /// KIR2DS1 /// KIR2DS2 /// KIR2DS3 /// KIR2DS4 /// KIR3DL3 /// KIR3DL3 /// KIR3DS1 (11738374_at) / Fold change /veh KIR2DL2 /// KIR2DL4 /// KIR2DL5A /// KIR2DL5B /// KIR2DS1 /// KIR2DS2 /// KIR2DS3 /// KIR2DS4 /// KIR3DL3 /// KIR3DL3 /// KIR3DS1 (11738374_at) / RFU C1QL1 (11718748_at) / Fold change /veh C1QL1 (11718748_at) / RFU TMPRSS4 (11747572_a_at) / Fold change /veh TMPRSS4 (11747572_a_at) / RFU HAMP (11756126_x_at) / Fold change /veh HAMP (11756126_x_at) / RFU RNFT2 (11725882_a_at) / Fold change /veh RNFT2 (11725882_a_at) / RFU NR4A2 (11747474_a_at) / Fold change /veh NR4A2 (11747474_a_at) / RFU ABCC12 (11746883_a_at) / Fold change /veh ABCC12 (11746883_a_at) / RFU TMEM136 (11760407_x_at) / Fold change /veh TMEM136 (11760407_x_at) / RFU CLDN22 /// WWC2 (11732394_at) / Fold change /veh CLDN22 /// WWC2 (11732394_at) / RFU HLA-DPB1 (11760878_x_at) / Fold change /veh HLA-DPB1 (11760878_x_at) / RFU SPINT1 (11716480_a_at) / Fold change /veh SPINT1 (11716480_a_at) / RFU GAP43 (11754022_s_at) / Fold change /veh GAP43 (11754022_s_at) / RFU A4GNT (11735810_at) / Fold change /veh A4GNT (11735810_at) / RFU PRB3 (11715151_x_at) / Fold change /veh PRB3 (11715151_x_at) / RFU TUBB4B (11761932_at) / Fold change /veh TUBB4B (11761932_at) / RFU CAPN14 (11732068_a_at) / Fold change /veh CAPN14 (11732068_a_at) / RFU TMCC2 (11721928_a_at) / Fold change /veh TMCC2 (11721928_a_at) / RFU IRGQ (11745062_a_at) / Fold change /veh IRGQ (11745062_a_at) / RFU FAM174B (11720279_a_at) / Fold change /veh FAM174B (11720279_a_at) / RFU TMPRSS4 (11748680_a_at) / Fold change /veh TMPRSS4 (11748680_a_at) / RFU FAM212B (11763350_a_at) / Fold change /veh FAM212B (11763350_a_at) / RFU PLEKHG5 (11743358_a_at) / Fold change /veh PLEKHG5 (11743358_a_at) / RFU ZSCAN30 (11745921_a_at) / Fold change /veh ZSCAN30 (11745921_a_at) / RFU CMKLR1 (11741424_a_at) / Fold change /veh CMKLR1 (11741424_a_at) / RFU LOC101060620 /// MAPK8IP1 (11723275_at) / Fold change /veh LOC101060620 /// MAPK8IP1 (11723275_at) / RFU SPTSSB (11747773_x_at) / Fold change /veh SPTSSB (11747773_x_at) / RFU PRSS12 (11739890_at) / Fold change /veh PRSS12 (11739890_at) / RFU BIN1 (11741810_x_at) / Fold change /veh BIN1 (11741810_x_at) / RFU WNT11 (11732464_a_at) / Fold change /veh WNT11 (11732464_a_at) / RFU C10orf10 (11716521_a_at) / Fold change /veh C10orf10 (11716521_a_at) / RFU C5orf56 (11738089_at) / Fold change /veh C5orf56 (11738089_at) / RFU CYB561 (11721691_x_at) / Fold change /veh CYB561 (11721691_x_at) / RFU ANKRD19P (11752326_a_at) / Fold change /veh ANKRD19P (11752326_a_at) / RFU OR2T12 /// OR2T33 /// OR2T8 (11738714_s_at) / Fold change /veh OR2T12 /// OR2T33 /// OR2T8 (11738714_s_at) / RFU VCAN (11748164_a_at) / Fold change /veh VCAN (11748164_a_at) / RFU JSRP1 (11732532_at) / Fold change /veh JSRP1 (11732532_at) / RFU KRTAP10-11 (11738290_x_at) / Fold change /veh KRTAP10-11 (11738290_x_at) / RFU MYO3A (11730013_a_at) / Fold change /veh MYO3A (11730013_a_at) / RFU EBF3 (11725865_a_at) / Fold change /veh EBF3 (11725865_a_at) / RFU CAMK2N1 (11719241_x_at) / Fold change /veh CAMK2N1 (11719241_x_at) / RFU C5orf56 (11738088_a_at) / Fold change /veh C5orf56 (11738088_a_at) / RFU OLFML3 (11715873_a_at) / Fold change /veh OLFML3 (11715873_a_at) / RFU LOC100653217 /// NTM (11731650_a_at) / Fold change /veh LOC100653217 /// NTM (11731650_a_at) / RFU MAPK11 (11762145_a_at) / Fold change /veh MAPK11 (11762145_a_at) / RFU FIZ1 (11724087_x_at) / Fold change /veh FIZ1 (11724087_x_at) / RFU OASL (11726364_x_at) / Fold change /veh OASL (11726364_x_at) / RFU SOX15 (11748057_x_at) / Fold change /veh SOX15 (11748057_x_at) / RFU CD79A (11719716_a_at) / Fold change /veh CD79A (11719716_a_at) / RFU HIST1H1D (11736915_at) / Fold change /veh HIST1H1D (11736915_at) / RFU CASKIN2 (11723855_a_at) / Fold change /veh CASKIN2 (11723855_a_at) / RFU LOC730098 (11760151_x_at) / Fold change /veh LOC730098 (11760151_x_at) / RFU OR4N2 (11742367_at) / Fold change /veh OR4N2 (11742367_at) / RFU PRRT2 (11749266_a_at) / Fold change /veh PRRT2 (11749266_a_at) / RFU SNX32 (11753110_a_at) / Fold change /veh SNX32 (11753110_a_at) / RFU CDHR5 (11726645_a_at) / Fold change /veh CDHR5 (11726645_a_at) / RFU RCAN1 (11760418_a_at) / Fold change /veh RCAN1 (11760418_a_at) / RFU FAM167A (11723789_a_at) / Fold change /veh FAM167A (11723789_a_at) / RFU FAM26E (11764081_at) / Fold change /veh FAM26E (11764081_at) / RFU ISYNA1 (11749810_s_at) / Fold change /veh ISYNA1 (11749810_s_at) / RFU ACY1 (11761880_at) / Fold change /veh ACY1 (11761880_at) / RFU 11764098_at / Fold change /veh 11764098_at / RFU SAMD14 (11745864_x_at) / Fold change /veh SAMD14 (11745864_x_at) / RFU NPB (11741838_a_at) / Fold change /veh NPB (11741838_a_at) / RFU TMPRSS6 (11731388_a_at) / Fold change /veh TMPRSS6 (11731388_a_at) / RFU KRTAP10-2 (11738614_at) / Fold change /veh KRTAP10-2 (11738614_at) / RFU ARHGAP8 /// PRR5-ARHGAP8 (11727945_x_at) / Fold change /veh ARHGAP8 /// PRR5-ARHGAP8 (11727945_x_at) / RFU KRTAP5-7 /// NADSYN1 (11734609_at) / Fold change /veh KRTAP5-7 /// NADSYN1 (11734609_at) / RFU RASL12 (11751679_a_at) / Fold change /veh RASL12 (11751679_a_at) / RFU CDKN2B (11736163_a_at) / Fold change /veh CDKN2B (11736163_a_at) / RFU PRF1 (11729649_at) / Fold change /veh PRF1 (11729649_at) / RFU, ZNF638 /// ZNF638-IT1 / Fold change vs veh, ZNF638 /// ZNF638-IT1 / RFU, PANK3 / Fold change vs veh, PANK3 / RFU, SH3YL1 / Fold change vs veh, SH3YL1 / RFU, ZEB2 / Fold change vs veh, ZEB2 / RFU, NRIP1 / Fold change vs veh, NRIP1 / RFU, PTTG1IP / Fold change vs veh, PTTG1IP / RFU, CAPN2 / Fold change vs veh, CAPN2 / RFU, MED14 / Fold change vs veh, MED14 / RFU, SNORA58 / Fold change vs veh, SNORA58 / RFU, C1orf63 / Fold change vs veh, C1orf63 / RFU, LRRFIP1 / Fold change vs veh, LRRFIP1 / RFU, NDUFAF7 / Fold change vs veh, NDUFAF7 / RFU, SLC12A2 / Fold change vs veh, SLC12A2 / RFU, IBTK / Fold change vs veh, IBTK / RFU, ESF1 / Fold change vs veh, ESF1 / Fold change vs veh, TMEM50B / RFU, TAOK1 / Fold change vs veh, TAOK1 / RFU, ACBD3 / Fold change vs veh, ACBD3 / RFU, TMA16 / Fold change vs veh, TMA16 / RFU, RWDD3 / Fold change vs veh, RWDD3 / RFU, BCAT1 / Fold change vs veh, BCAT1 / RFU, EDEM3 / Fold change vs veh, EDEM3 / RFU, TMEM33 / Fold change vs veh, TMEM33 / RFU, WDR75 / Fold change vs veh, WDR75 / RFU, AHCTF1 / Fold change vs veh, AHCTF1 / RFU, TFRC / Fold change vs veh, TFRC / RFU, ZDHHC17 / Fold change vs veh, ZDHHC17 / RFU, NOM1 / Fold change vs veh, NOM1 / RFU, ARL8B / Fold change vs veh, ARL8B / RFU, ZBTB11 / Fold change vs veh, ZBTB11 / RFU, TAMM41 / Fold change vs veh, TAMM41 / RFU, KIAA1704 /// LOC100996395 / Fold change vs veh, KIAA1704 /// LOC100996395 / RFU, ING1 / Fold change vs veh, ING1 / RFU, TRMT61B / Fold change vs veh, TRMT61B / RFU, FUBP3 / Fold change vs veh, FUBP3 / RFU, TP53 / Fold change vs veh, TP53 / RFU, TNKS2 / Fold change vs veh, TNKS2 / RFU, ZFP14 / Fold change vs veh, ZFP14 / RFU, ACTR2 / Fold change vs veh, ACTR2 / RFU, PPP3R1 / Fold change vs veh, PPP3R1 / RFU, PIK3R1 / Fold change vs veh, PIK3R1 / RFU, HNRNPA1 / Fold change vs veh, HNRNPA1 / RFU, RNF170 / Fold change vs veh, RNF170 / RFU, ZNF28 / Fold change vs veh, ZNF28 / RFU, RNGTT / Fold change vs veh, RNGTT / RFU, OGT / Fold change vs veh, OGT / RFU, BRD1 / Fold change vs veh, BRD1 / RFU, MARS / Fold change vs veh, MARS / RFU, ZNF655 / Fold change vs veh, ZNF655 / RFU, FAHD1 / Fold change vs veh, FAHD1 / RFU, BDP1 / Fold change vs veh, BDP1 / RFU, LRRCC1 / Fold change vs veh, LRRCC1 / RFU, ARID1A / Fold change vs veh, ARID1A / RFU, ZNF146 / Fold change vs veh, ZNF146 / RFU, ZNF330 / Fold change vs veh, ZNF330 / RFU, GPN3 / Fold change vs veh, GPN3 / RFU, C9orf123 / Fold change vs veh, C9orf123 / RFU, N4BP2L2 / Fold change vs veh, N4BP2L2 / RFU, ARFIP1 / Fold change vs veh, ARFIP1 / RFU, FAM179B / Fold change vs veh, FAM179B / RFU, BCL10 / Fold change vs veh, BCL10 / RFU, UHRF1BP1L / Fold change vs veh, UHRF1BP1L / RFU, BET1 / Fold change vs veh, BET1 / RFU, CNOT2 / Fold change vs veh, CNOT2 / RFU, ZNF268 / Fold change vs veh, ZNF268 / Fold change vs veh, ZNF507 / RFU, DGCR2 / Fold change vs veh, DGCR2 / RFU, WDSUB1 / Fold change vs veh, WDSUB1 / Fold change vs veh, HSP90B1 /// MIR3652 / RFU, ADSS / Fold change vs veh, ADSS / RFU, GK / Fold change vs veh, GK / RFU, ZNF148 / Fold change vs veh, ZNF148 / RFU, TAF9 / Fold change vs veh, TAF9 / RFU, SLC1A5 / Fold change vs veh, SLC1A5 / RFU, SLMO2 / Fold change vs veh, SLMO2 / RFU, ABCC4 / Fold change vs veh, ABCC4 / RFU, LOC101060439 /// RAP1B / Fold change vs veh, LOC101060439 /// RAP1B / RFU, RFX7 / Fold change vs veh, RFX7 / RFU, GTPBP10 / Fold change vs veh, GTPBP10 / RFU, CNEP1R1 / Fold change vs veh, CNEP1R1 / RFU, BIVM-ERCC5 /// ERCC5 / Fold change vs veh, BIVM-ERCC5 /// ERCC5 / RFU, ILF3 / Fold change vs veh, ILF3 / RFU 11762660_at / Fold change /veh 11762660_at / RFU VCAN (11757783_s_at) / Fold change /veh VCAN (11757783_s_at) / RFU DDX43 (11728927_at) / Fold change /veh DDX43 (11728927_at) / RFU KRT8 (11758188_x_at) / Fold change /veh KRT8 (11758188_x_at) / RFU NKD1 (11759106_at) / Fold change /veh NKD1 (11759106_at) / RFU SRD5A1 (11742802_a_at) / Fold change /veh SRD5A1 (11742802_a_at) / RFU TPSAB1 /// TPSB2 (11721975_s_at) / Fold change /veh TPSAB1 /// TPSB2 (11721975_s_at) / RFU GSTM3 (11746129_a_at) / Fold change /veh GSTM3 (11746129_a_at) / RFU IL23R (11737362_x_at) / Fold change /veh IL23R (11737362_x_at) / RFU TMEM51 (11727254_a_at) / Fold change /veh TMEM51 (11727254_a_at) / RFU PIWIL2 (11732686_x_at) / Fold change /veh PIWIL2 (11732686_x_at) / RFU ORM1 (11744905_x_at) / Fold change /veh ORM1 (11744905_x_at) / RFU CCDC152 (11743942_at) / Fold change /veh CCDC152 (11743942_at) / RFU ECM1 (11717891_a_at) / Fold change /veh ECM1 (11717891_a_at) / RFU IL23R (11748794_a_at) / Fold change /veh IL23R (11748794_a_at) / RFU TNFAIP8L3 (11732012_x_at) / Fold change /veh TNFAIP8L3 (11732012_x_at) / RFU MBOAT4 (11741988_at) / Fold change /veh MBOAT4 (11741988_at) / RFU 11764193_at / Fold change /veh 11764193_at / RFU TMEM53 (11763286_at) / Fold change /veh TMEM53 (11763286_at) / RFU MAGEB2 (11727129_at) / Fold change /veh MAGEB2 (11727129_at) / RFU TMEM200A (11744735_a_at) / Fold change /veh TMEM200A (11744735_a_at) / RFU CCDC152 (11751479_a_at) / Fold change /veh CCDC152 (11751479_a_at) / RFU FAM211A (11726209_a_at) / Fold change /veh FAM211A (11726209_a_at) / RFU RGS16 (11746705_a_at) / Fold change /veh RGS16 (11746705_a_at) / RFU VCAN (11755009_s_at) / Fold change /veh VCAN (11755009_s_at) / RFU RHOB (11743442_s_at) / Fold change /veh RHOB (11743442_s_at) / RFU RGS16 (11720943_a_at) / Fold change /veh RGS16 (11720943_a_at) / RFU RGS16 (11720944_at) / Fold change /veh RGS16 (11720944_at) / RFU, VPS4B / Fold change vs veh, VPS4B / RFU, CREB1 / Fold change vs veh, CREB1 / RFU, DNAJC13 / Fold change vs veh, DNAJC13 / RFU, GNAQ / Fold change vs veh, GNAQ / RFU, CDK5R1 / Fold change vs veh, CDK5R1 / RFU, ZRANB3 / Fold change vs veh, ZRANB3 / RFU, CUL4A / Fold change vs veh, CUL4A / RFU, CCNY / Fold change vs veh, CCNY / RFU, UFL1 / Fold change vs veh, UFL1 / RFU, COG3 / Fold change vs veh, COG3 / RFU, DIAPH2 / Fold change vs veh, DIAPH2 / RFU, SKA2 / Fold change vs veh, SKA2 / RFU, AFF3 / Fold change vs veh, AFF3 / RFU, LMF1 / Fold change vs veh, LMF1 / RFU, IPO11 / Fold change vs veh, IPO11 / RFU, DFFB / Fold change vs veh, DFFB / RFU, FOXP1 / Fold change vs veh, FOXP1 / RFU, CARD8 / Fold change vs veh, CARD8 / RFU, STRN3 / Fold change vs veh, STRN3 / RFU, ADK / Fold change vs veh, ADK / RFU, RASSF2 / Fold change vs veh, RASSF2 / RFU, WIPF1 / Fold change vs veh, WIPF1 / RFU, LARP1B / Fold change vs veh, LARP1B / RFU, RASA1 / Fold change vs veh, RASA1 / RFU, RB1 / Fold change vs veh, RB1 / RFU, PPFIA1 / Fold change vs veh, PPFIA1 / RFU, MAT2A / Fold change vs veh, MAT2A / RFU, CCT5 / Fold change vs veh, CCT5 / RFU, WDR92 / Fold change vs veh, WDR92 / RFU, CUX1 / Fold change vs veh, CUX1 / RFU, TTC7A / Fold change vs veh, TTC7A / RFU, TMEM135 / Fold change vs veh, TMEM135 / RFU, DEPTOR / Fold change vs veh, DEPTOR / RFU, CPM / Fold change vs veh, CPM / RFU, DNAJB6 / Fold change vs veh, DNAJB6 / RFU, CACNA2D3 / Fold change vs veh, CACNA2D3 / RFU, DTX4 / Fold change vs veh, DTX4 / RFU, TFCP2 / Fold change vs veh, TFCP2 / RFU, GMCL1 /// GMCL1P1 / Fold change vs veh, GMCL1 /// GMCL1P1 / RFU, AEBP2 / Fold change vs veh, AEBP2 / RFU, SNHG1 /// SNORD22 /// SNORD25 /// SNORD26 /// SNORD27 /// SNORD28 /// SNORD29 /// SNORD31 / Fold change vs veh, SNHG1 /// SNORD22 /// SNORD25 /// SNORD26 /// SNORD27 /// SNORD28 /// SNORD29 /// SNORD31 / Fold change (Aza/veh), C12orf56 (ProbeSet 11735607_a_at) / Fold change (ACY-1035/veh), C12orf56 (ProbeSet 11735607_a_at) / Fold change (Aza/veh), FGFR1OP (ProbeSet 11751329_s_at) / Fold change (ACY-1035/veh), FGFR1OP (ProbeSet 11751329_s_at) / Fold change (Aza/veh), VPS36 (ProbeSet 11739960_a_at) / Fold change (ACY-1035/veh), VPS36 (ProbeSet 11739960_a_at) / RFU SYPL1 (11715823_x_at) / Fold change /veh SYPL1 (11715823_x_at) / RFU IGFBP7 (11715501_s_at) / Fold change /veh IGFBP7 (11715501_s_at) / RFU REEP3 (11722064_at) / Fold change /veh REEP3 (11722064_at) / RFU IGLL1 (11728026_x_at) / Fold change /veh IGLL1 (11728026_x_at): dose or concentration left out as unconfirmed
# Details: ProbeSet 11743929_at; LIST B
smiles,measurement,value
Nc1ccc(-c2cccs2)cc1NC(=O)c1ccc2c(c1)cc(C1CC1)n2CCN1CCOCC1 [ACY-1035],"Fold change vs veh, UHRF1BP1L",0.90
